Patent US7906507B2, “Oxadiazoanthracene compounds for the treatment of diabetes” (TransTech Pharma, Inc., priority 2008, dated 2011)

Target: T1, cloned human GLP-1 receptor (Homo sapiens, UniProt P43220)
T1 construct: expressed in transfected cells; host or cells: CHO or HEK-293 cells
Assay: Functional cell-based assay: cAMP functional assay
Settings: for Emax: 0.5 h, percentage relative to maximal GLP-1-induced cAMP accumulation, na = not active in the assay, read-out: % activation
Description: Following overnight incubation of cells, media was removed, and compounds (at concentrations ranging from 0.0001 to 100 μM) were added to monolayer cells in Iscove's modified dulbecco's medium (IMDM), 100 μM RO 20-1724 PDE inhibitor, 0.1% BSA, 2% DMSO in a final volume of 100 μL, and incubated for 30 min at 37° C. 95% O2, 5% CO2 in a humidified incubator. cAMP was quantitated using a homogenous time-resolved fluorescence detection system (cAMP dynamic, CIS bio International).

T1 sequence (P43220 24-463): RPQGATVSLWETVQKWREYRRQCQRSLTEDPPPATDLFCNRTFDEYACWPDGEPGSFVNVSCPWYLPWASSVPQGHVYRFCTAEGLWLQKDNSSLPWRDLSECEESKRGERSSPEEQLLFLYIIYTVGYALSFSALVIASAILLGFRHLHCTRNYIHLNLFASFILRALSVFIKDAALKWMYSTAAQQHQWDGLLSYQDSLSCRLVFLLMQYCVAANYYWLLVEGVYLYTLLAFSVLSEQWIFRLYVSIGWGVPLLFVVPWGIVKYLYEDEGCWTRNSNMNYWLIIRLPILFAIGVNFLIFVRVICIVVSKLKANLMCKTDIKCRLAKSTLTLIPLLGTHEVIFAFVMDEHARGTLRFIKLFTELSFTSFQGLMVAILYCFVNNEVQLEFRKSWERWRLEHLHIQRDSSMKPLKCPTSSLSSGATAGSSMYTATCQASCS

SMILES | EC50 | Emax
COc1ccccc1CN1Cc2cc3c(cc2C[C@H]1C(=O)N[C@@H](Cc1ccc(-c2ccc(C#N)cc2)cc1)C(=O)O)NC(=O)C(c1ccc(OCc2ccc(Cl)c(Cl)c2)cc1)O3 (stereo partly drawn) [Example 43, (S)-3-(4′-Cyano-biphenyl-4-yl)-2-{[(S)-3-[4-(3,4-dichloro-benzyloxy)-phenyl]-6-(2-methoxy-benzyl)-2-oxo-2,3,5,6,7,8-hexahydro-1H-4-oxa-1,6-diaza-anthracene-7-carbonyl]-amino}-propionic acid] | 500 nM | 34%
N#Cc1ccc(-c2ccc(C[C@H](NC(=O)[C@@H]3Cc4cc5c(cc4CN3C(=O)OC3CCC(O)C3)OC(c3ccc(OCc4ccc(Cl)c(Cl)c4)cc3)C(=O)N5)C(=O)O)cc2)cc1 (stereo partly drawn) [Example 2, (S)-7-[(S)-1-Carboxy-2-(4′-cyano-biphenyl-4-yl)-ethylcarbamoyl]-3-[4-(3,4-dichloro-benzyloxy)-phenyl]-2-oxo-1,2,3,5,7,8-hexahydro-4-oxa-1,6-diaza-anthracene-6-carboxylic acid 3-hydroxy-cyclopentyl ester] | 670 nM | 7.8%
CC(c1ccccc1)N1Cc2cc3c(cc2C[C@H]1C(=O)N[C@@H](Cc1ccc(-c2ccc(C#N)cc2)cc1)C(=O)O)N(C)C(=O)C(c1ccc(OCc2ccc(Cl)c(Cl)c2)cc1)O3 (stereo partly drawn) [Example 80, (S)-3-(4′-Cyano-biphenyl-4-yl)-2-{[(S)-3-[4-(3,4-dichloro-benzyloxy)-phenyl]-1-methyl-2-oxo-6-(1-phenyl-ethyl)-2,3,5,6,7,8-hexahydro-1H-4-oxa-1,6-diaza-anthracene-7-carbonyl]-amino}-propionic acid] | 66 nM | 16%
CSc1nc(CN2Cc3cc4c(cc3C[C@H]2C(=O)N[C@@H](Cc2ccc(-c3ccc(C#N)cc3)cc2)C(=O)O)NC(=O)C(c2ccc(OCc3ccc(Cl)c(Cl)c3)cc2)O4)ccc1C#N (stereo partly drawn) [Example 46, (S)-3-(4′-Cyano-biphenyl-4-yl)-2-({(S)-6-(5-cyano-6-methylsulfanyl-pyridin-2-ylmethyl)-3-[4-(3,4-dichloro-benzyloxy)-phenyl]-2-oxo-2,3,5,6,7,8-hexahydro-1H-4-oxa-1,6-diaza-anthracene-7-carbonyl}-amino)-propionic acid] | 1000 nM | 22%
N#Cc1ccc(-c2ccc(C[C@H](NC(=O)[C@@H]3Cc4cc5c(cc4CN3C(=O)c3ccccc3)OC(c3ccc(OCc4ccc(Cl)cc4)cc3)C(=O)N5)C(=O)O)cc2)cc1 (stereo partly drawn) [Example 60, (S)-2-({(S)-6-Benzoyl-3-[4-(4-chloro-benzyloxy)-phenyl]-2-oxo-2,3,5,6,7,8-hexahydro-1H-4-oxa-1,6-diaza-anthracene-7-carbonyl}-amino)-3-(4′-cyano-biphenyl-4-yl)-propionic acid] | 1630 nM | 62%
Cc1ccc(-c2ccc(C[C@H](NC(=O)[C@@H]3Cc4cc5c(cc4CN3Cc3ccccn3)OC(c3ccc(OCc4ccc(Cl)c(Cl)c4)cc3)C(=O)N5)C(=O)O)cc2)cc1 (stereo partly drawn) [Example 85, (S)-2-({(S)-3-[4-(3,4-Dichloro-benzyloxy)-phenyl]-2-oxo-6-pyridin-2-ylmethyl-2,3,5,6,7,8-hexahydro-1H-4-oxa-1,6-diaza-anthracene-7-carbonyl}-amino)-3-(4′-methyl-biphenyl-4-yl)-propionic acid] | 2000 nM | 55%
CC[C@@H](c1ccccc1)N1Cc2cc3c(cc2C[C@H]1C(=O)N[C@@H](Cc1ccc(-c2ccc(F)cc2)cc1)C(=O)O)N(C)C(=O)[C@@H](c1ccc(OCc2ccc(Cl)c(Cl)c2)cc1)O3 [Example 92, (S)-2-{[(3R,7S)-3-[4-(3,4-Dichloro-benzyloxy)-phenyl]-1-methyl-2-oxo-6-((S)-1-phenyl-propyl)-2,3,5,6,7,8-hexahydro-1H-4-oxa-1,6-diaza-anthracene-7-carbonyl]-amino}-3-(4′-fluoro-biphenyl-4-yl)-propionic acid] | 723 nM | 30%
CC[C@@H](c1ccccc1)N1Cc2cc3c(cc2C[C@H]1C(=O)N[C@@](C)(Cc1ccc(-c2ccc(C#N)cc2)cc1)C(=O)O)N(C)C(=O)C(c1ccc(OCc2ccc(Cl)c(Cl)c2)cc1)O3 (stereo in doubt) [Example 97, (S)-3-(4′-Cyano-biphenyl-4-yl)-2-{[(S)-3-[4-(3,4-dichloro-benzyloxy)-phenyl]-1-methyl-2-oxo-6-((S)-1-phenyl-propyl)-2,3,5,6,7,8-hexahydro-1H-4-oxa-1,6-diaza-anthracene-7-carbonyl]-amino}-2-methyl-propionic acid] | 38.2 nM | 38%

Continued, values first:

EC50 | Emax | SMILES
920 nM | 43% | O=C1Nc2cc3c(cc2OC1c1ccc(OCc2ccc(Cl)c(Cl)c2)cc1)CN(C(=O)c1ccccc1)[C@H](C(=O)N[C@@H](Cc1ccc(-c2ccc(Cl)cc2)cc1)C(=O)O)C3 (stereo partly drawn) [Example 84, (S)-2-({(S)-6-Benzoyl-3-[4-(3,4-dichloro-benzyloxy)-phenyl]-2-oxo-2,3,5,6,7,8-hexahydro-1H-4-oxa-1,6-diaza-anthracene-7-carbonyl}-amino)-3-(4′-chloro-biphenyl-4-yl)-propionic acid]
657 nM | 78% | N#Cc1ccc(-c2ccc(C[C@H](NC(=O)[C@@H]3Cc4cc5c(cc4CN3C(=O)C3CCCC3)OC(c3ccc(OCc4ccc(Cl)c(Cl)c4)cc3)C(=O)N5)C(=O)O)cc2)cc1 (stereo partly drawn) [Example 16, (S)-3-(4′-Cyano-biphenyl-4-yl)-2-({(S)-6-cyclopentanecarbonyl-3-[4-(3,4-dichloro-benzyloxy)-phenyl]-2-oxo-2,3,5,6,7,8-hexahydro-1H-4-oxa-1,6-diaza-anthracene-7-carbonyl}-amino)-propionic acid]
500 nM | 54% | CC(C)COC(=O)N1Cc2cc3c(cc2C[C@H]1C(=O)N[C@@H](Cc1ccc(-c2ccc(C#N)cc2)cc1)C(=O)O)NC(=O)C(c1ccc(OCc2ccc(Cl)c(Cl)c2)cc1)O3 (stereo partly drawn) [Example 9, (S)-7-[(S)-1-Carboxy-2-(4′-cyano-biphenyl-4-yl)-ethylcarbamoyl]-3-[4-(3,4-dichloro-benzyloxy)-phenyl]-2-oxo-1,2,3,5,7,8-hexahydro-4-oxa-1,6-diaza-anthracene-6-carboxylic acid isobutyl ester]
181 nM | 69.9% | N#Cc1ccc(-c2ccc(C[C@H](NC(=O)[C@@H]3Cc4cc5c(cc4CN3C(=O)O[C@@H]3CCOC3)OC(c3ccc(OCc4ccc(Cl)c(Cl)c4)cc3)C(=O)N5)C(=O)O)cc2)cc1 (stereo partly drawn) [Example 19, (S)-7-[(S)-1-Carboxy-2-(4′-cyano-biphenyl-4-yl)-ethylcarbamoyl]-3-[4-(3,4-dichloro-benzyloxy)-phenyl]-2-oxo-1,2,3,5,7,8-hexahydro-4-oxa-1,6-diaza-anthracene-6-carboxylic acid (R)-(tetrahydro-furan-3-yl) ester]
891 nM | 73.5% | N#Cc1ccc(-c2ccc(C[C@H](NC(=O)[C@@H]3Cc4cc5c(cc4CN3C(=O)c3ccc(F)cc3)OC(c3ccc(OCc4ccc(Cl)c(Cl)c4)cc3)C(=O)N5)C(=O)O)cc2)cc1 (stereo partly drawn) [Example 22, (S)-3-(4′-Cyano-biphenyl-4-yl)-2-{[(S)-3-[4-(3,4-dichloro-benzyloxy)-phenyl]-6-(4-fluoro-benzoyl)-2-oxo-2,3,5,6,7,8-hexahydro-1H-4-oxa-1,6-diaza-anthracene-7-carbonyl]-amino}-propionic acid]
660 nM | 13% | N#Cc1ccc(-c2ccc(C[C@H](NC(=O)[C@@H]3Cc4cc5c(cc4CN3C(=O)c3c(F)cc(F)cc3F)OC(c3ccc(OCc4ccc(Cl)c(Cl)c4)cc3)C(=O)N5)C(=O)O)cc2)cc1 (stereo partly drawn) [Example 36, (S)-3-(4′-Cyano-biphenyl-4-yl)-2-{[(S)-3-[4-(3,4-dichloro-benzyloxy)-phenyl]-2-oxo-6-(2,4,6-trifluoro-benzoyl)-2,3,5,6,7,8-hexahydro-1H-4-oxa-1,6-diaza-anthracene-7-carbonyl]-amino}-propionic acid]
699 nM | 80% | N#Cc1ccc(-c2ccc(C[C@H](NC(=O)[C@@H]3Cc4cc5c(cc4CN3C(=O)N3CCCCC3)OC(c3ccc(OCc4ccc(Cl)c(Cl)c4)cc3)C(=O)N5)C(=O)O)cc2)cc1 (stereo partly drawn) [Example 17, (S)-3-(4′-Cyano-biphenyl-4-yl)-2-{[(S)-3-[4-(3,4-dichloro-benzyloxy)-phenyl]-2-oxo-6-(piperidine-1-carbonyl)-2,3,5,6,7,8-hexahydro-1H-4-oxa-1,6-diaza-anthracene-7-carbonyl]-amino}-propionic acid]
1300 nM | 7% | CN(C)C(=O)N1Cc2cc3c(cc2C[C@H]1C(=O)N[C@@H](Cc1ccc(-c2ccc(C#N)cc2)cc1)C(=O)O)NC(=O)C(c1ccc(OCc2ccc(Cl)c(Cl)c2)cc1)O3 (stereo partly drawn) [Example 33, (S)-3-(4′-Cyano-biphenyl-4-yl)-2-({(S)-3-[4-(3,4-dichloro-benzylozy)-phenyl]-2-oxo-6-dimethylcarbamoyl-2-oxo-2,3,5,6,7,8-hexahydro-1H-4-oxa-1,6-diaza-anthracene-7-carbonyl}-amino)-propionic acid]
1200 nM | 34% | N#Cc1ccc(-c2ccc(C[C@H](NC(=O)[C@@H]3Cc4cc5c(cc4CN3Cc3cccs3)OC(c3ccc(OCc4ccc(Cl)c(Cl)c4)cc3)C(=O)N5)C(=O)O)cc2)cc1 (stereo partly drawn) [Example 40]
270 nM | 74.7% | N#Cc1ccc(-c2ccc(C[C@H](NC(=O)[C@@H]3Cc4cc5c(cc4CN3C(=O)OCC3CC3)OC(c3ccc(OCc4ccc(Cl)c(Cl)c4)cc3)C(=O)N5)C(=O)O)cc2)cc1 (stereo partly drawn) [Example 18, (S)-7-[(S)-1-Carboxy-2-(4′-cyano-biphenyl-4-yl)-ethylcarbamoyl]-3-[4-(3,4-dichloro-benzyloxy)-phenyl]-2-oxo-1,2,3,5,7,8-hexahydro-4-oxa-1,6-diaza-anthracene-6-carboxylic acid cyclopropylmethyl ester]
